According to ChEMBL document CHEMBL1201862, “PubChem BioAssay data set” (2004):
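The compound was tested at five concentrations on cells cultured in 96-well plates, with a 48-hour exposure period. Abbreviation: GI50, concentration required for 50% inhibition of growth.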 Active and inactive are the calls of the source. Rule as the data show it: active = GI50 up to about 1.1 µM and inactive = higher.

What was measured:
Test in all cases: growth of human tumour cells (NCI), 48 h
NCI-H460 = test system: NCI-H460
SK-MEL-5 = test system: SK-MEL-5
SF-295 = test system: SF-295
A549 = test system: A549
MOLT-4 = test system: MOLT-4
HOP-62 = test system: HOP-62
MDA-N = test system: MDA-N
BT-549 = test system: BT-549
UACC-62 = test system: UACC-62
UACC-257 = test system: UACC-257
SF-268 = test system: SF-268
HL-60 = test system: HL-60
NCI-H23 = test system: NCI-H23
LOX IMVI = test system: LOX IMVI
CCRF-CEM = test system: CCRF-CEM
Malme-3M = test system: Malme-3M
COLO 205 = test system: COLO 205
NCI-H226 = test system: NCI-H226
HT-29 = test system: HT-29
MCF7 = test system: MCF7
SNB-75 = test system: SNB-75
U-251 = test system: U-251
OVCAR-3 = test system: OVCAR-3
ACHN = test system: ACHN
SNB-19 = test system: SNB-19
TK-10 = test system: TK-10
DU-145 = test system: DU-145
MDA-MB-231 = test system: MDA-MB-231
SR = test system: SR
UO-31 = test system: UO-31
M14 = test system: M14
MDA-MB-435 = test system: MDA-MB-435
SW-620 = test system: SW-620
HOP-92 = test system: HOP-92
NCI-H522 = test system: NCI-H522
RXF 393 = test system: RXF 393
A498 = test system: A498
HCT-116 = test system: HCT-116
K562 = test system: K562
HCT-15 = test system: HCT-15
SK-OV-3 = test system: SK-OV-3
IGROV-1 = test system: IGROV-1
CAKI-1 = test system: CAKI-1
OVCAR-5 = test system: OVCAR-5
SK-MEL-2 = test system: SK-MEL-2
RPMI-8226 = test system: RPMI-8226
KM12 = test system: KM12
HCC 2998 = test system: HCC 2998
T47D = test system: T47D
EKVX = test system: EKVX
Hs-578T = test system: Hs-578T
SK-MEL-28 = test system: SK-MEL-28
PC-3 = test system: PC-3
OVCAR-8 = test system: OVCAR-8
786-0 = test system: 786-0
SN12C = test system: SN12C
OVCAR-4 = test system: OVCAR-4
NCI/ADR-RES = test system: NCI/ADR-RES
SF-539 = test system: SF-539
SNB-78 = test system: SNB-78
KM-20L2 = test system: KM-20L2
M19-MEL = test system: M19-MEL
DMS-114 = test system: DMS-114
LXFL 529 = test system: LXFL 529
DLD-1 = test system: DLD-1

Compound: O=P(O)(CCP(=O)(O)c1ccccc1)c1ccccc1
- GI50 (NCI-H460): > 100 µM (inactive)
- GI50 (SK-MEL-5): > 100 µM (inactive)
- GI50 (SF-295): > 100 µM (inactive)
- GI50 (A549): > 100 µM (inactive)
- GI50 (MOLT-4): > 100 µM (inactive)
- GI50 (HOP-62): > 100 µM (inactive)
- GI50 (MDA-N): > 100 µM (inactive)
- GI50 (BT-549): > 100 µM (inactive)
- GI50 (UACC-62): > 100 µM (inactive)
- GI50 (UACC-257): > 100 µM (inactive)
- GI50 (SF-268): > 100 µM (inactive)
- GI50 (HL-60): > 100 µM (inactive)
- GI50 (NCI-H23): > 100 µM (inactive)
- GI50 (LOX IMVI): > 100 µM (inactive)
- GI50 (CCRF-CEM): > 100 µM (inactive)
- GI50 (Malme-3M): > 100 µM (inactive)
- GI50 (COLO 205): > 100 µM (inactive)
- GI50 (NCI-H226): > 100 µM (inactive)
- GI50 (HT-29): > 100 µM (inactive)
- GI50 (MCF7): > 100 µM (inactive)
- GI50 (SNB-75): > 100 µM (inactive)
- GI50 (U-251): > 100 µM (inactive)
- GI50 (OVCAR-3): > 100 µM (inactive)
- GI50 (ACHN): > 100 µM (inactive)
- GI50 (SNB-19): > 100 µM (inactive)
- GI50 (TK-10): > 100 µM (inactive)
- GI50 (DU-145): > 100 µM (inactive)
- GI50 (MDA-MB-231): > 100 µM (inactive)
- GI50 (SR): > 100 µM (inactive)
- GI50 (UO-31): > 100 µM (inactive)
- GI50 (M14): > 100 µM (inactive)
- GI50 (MDA-MB-435): > 100 µM (inactive)
- GI50 (SW-620): > 100 µM (inactive)
- GI50 (HOP-92): > 100 µM (inactive)
- GI50 (NCI-H522): > 100 µM (inactive)
- GI50 (RXF 393): > 100 µM (inactive)
- GI50 (A498): > 100 µM (inactive)
- GI50 (HCT-116): > 100 µM (inactive)
- GI50 (K562): > 100 µM (inactive)
- GI50 (HCT-15): > 100 µM
- GI50 (SK-OV-3): > 100 µM (inactive)
- GI50 (IGROV-1): > 100 µM (inactive)
- GI50 (CAKI-1): > 100 µM (inactive)
- GI50 (OVCAR-5): > 100 µM (inactive)
- GI50 (SK-MEL-2): > 100 µM (inactive)
- GI50 (RPMI-8226): > 100 µM (inactive)
- GI50 (KM12): > 100 µM (inactive)
- GI50 (HCC 2998): > 100 µM (inactive)
- GI50 (T47D): > 100 µM (inactive)
- GI50 (EKVX): > 100 µM (inactive)
- GI50 (Hs-578T): > 100 µM (inactive)
- GI50 (SK-MEL-28): > 100 µM (inactive)
- GI50 (PC-3): > 100 µM (inactive)
- GI50 (OVCAR-8): > 100 µM (inactive)
- GI50 (786-0): > 100 µM (inactive)
- GI50 (SN12C): > 100 µM (inactive)
- GI50 (OVCAR-4): > 100 µM (inactive)
- GI50 (NCI/ADR-RES): > 100 µM (inactive)
- GI50 (SF-539): > 100 µM (inactive)

Compound: CCCCCCCCCCCCCB(O)O
- GI50 (NCI-H460): 85.5 µM (inactive)
- GI50 (SF-295): > 100 µM (inactive)
- GI50 (SNB-78): 58.1 µM (inactive)
- GI50 (HOP-62): > 100 µM (inactive)
- GI50 (KM-20L2): 60.7 µM (inactive)
- GI50 (UACC-62): > 100 µM (inactive)
- GI50 (UACC-257): > 100 µM (inactive)
- GI50 (SF-268): 69.2 µM (inactive)
- GI50 (LOX IMVI): > 100 µM (inactive)
- GI50 (CCRF-CEM): 57.8 µM (inactive)
- GI50 (Malme-3M): > 100 µM (inactive)
- GI50 (COLO 205): > 100 µM (inactive)
- GI50 (NCI-H226): 96.2 µM (inactive)
- GI50 (M19-MEL): > 100 µM (inactive)
- GI50 (U-251): 60.4 µM (inactive)
- GI50 (OVCAR-3): 50.7 µM (inactive)
- GI50 (DMS-114): 65.5 µM (inactive)
- GI50 (TK-10): > 100 µM (inactive)
- GI50 (LXFL 529): 81.8 µM (inactive)
- GI50 (SW-620): 61.5 µM (inactive)
- GI50 (NCI-H522): 51.3 µM (inactive)
- GI50 (A498): 50.2 µM (inactive)
- GI50 (SK-OV-3): > 100 µM (inactive)
- GI50 (IGROV-1): > 100 µM (inactive)
- GI50 (SK-MEL-28): > 100 µM (inactive)
- GI50 (OVCAR-8): > 100 µM (inactive)
- GI50 (786-0): 95.5 µM (inactive)
- GI50 (DLD-1): 65.2 µM (inactive)
- GI50 (SN12C): 66.2 µM (inactive)
- GI50 (SF-539): > 100 µM (inactive)

Compound: CC(=O)SC(C[N+](=O)[O-])c1ccccc1 (stereo not drawn)
- GI50 (NCI-H460): 8.67 µM (inactive)
- GI50 (SK-MEL-5): 2.68 µM (inactive)
- GI50 (SF-295): 6.15 µM (inactive)
- GI50 (A549): 3.82 µM (inactive)
- GI50 (MOLT-4): 1.72 µM (inactive)
- GI50 (HOP-62): 15.3 µM (inactive)
- GI50 (MDA-N): 2.32 µM (inactive)
- GI50 (BT-549): 2.22 µM (inactive)
- GI50 (UACC-62): 13.9 µM (inactive)
- GI50 (UACC-257): 11.3 µM (inactive)
- GI50 (SF-268): 7.98 µM (inactive)
- GI50 (HL-60): 3.87 µM (inactive)
- GI50 (NCI-H23): 12 µM (inactive)
- GI50 (LOX IMVI): 1.65 µM (inactive)
- GI50 (CCRF-CEM): 2.84 µM (inactive)
- GI50 (Malme-3M): 16.6 µM (inactive)
- GI50 (COLO 205): 2.77 µM (inactive)
- GI50 (NCI-H226): 2.59 µM (inactive)
- GI50 (HT-29): 2.06 µM (inactive)
- GI50 (MCF7): 1.74 µM (inactive)
- GI50 (SNB-75): 2.29 µM (inactive)
- GI50 (U-251): 3.79 µM (inactive)
- GI50 (OVCAR-3): 5.37 µM (inactive)
- GI50 (ACHN): 3.66 µM (inactive)
- GI50 (SNB-19): 11.9 µM (inactive)
- GI50 (TK-10): 7.26 µM (inactive)
- GI50 (DU-145): 6.37 µM (inactive)
- GI50 (MDA-MB-231): 10.8 µM (inactive)
- GI50 (SR): 2.22 µM (inactive)
- GI50 (UO-31): 2.3 µM (inactive)
- GI50 (M14): 3.84 µM (inactive)
- GI50 (MDA-MB-435): 2.09 µM (inactive)
- GI50 (SW-620): 2.18 µM (inactive)
- GI50 (HOP-92): 12.6 µM (inactive)
- GI50 (NCI-H522): 16.4 µM (inactive)
- GI50 (RXF 393): 2.1 µM (inactive)
- GI50 (A498): 5.43 µM (inactive)
- GI50 (HCT-116): 1.6 µM (inactive)
- GI50 (K562): 2.41 µM (inactive)
- GI50 (HCT-15): 2.21 µM
- GI50 (SK-OV-3): 13.3 µM (inactive)
- GI50 (IGROV-1): 2.32 µM (inactive)
- GI50 (CAKI-1): 14 µM (inactive)
- GI50 (OVCAR-5): 3.8 µM (inactive)
- GI50 (SK-MEL-2): 19.8 µM (inactive)
- GI50 (RPMI-8226): 2.05 µM (inactive)
- GI50 (KM12): 4.99 µM (inactive)
- GI50 (HCC 2998): 4.75 µM (inactive)
- GI50 (T47D): 10.4 µM (inactive)
- GI50 (EKVX): 6.31 µM (inactive)
- GI50 (Hs-578T): 4.65 µM (inactive)
- GI50 (SK-MEL-28): 5.55 µM (inactive)
- GI50 (PC-3): 10.7 µM (inactive)
- GI50 (OVCAR-8): 11.8 µM (inactive)
- GI50 (786-0): 3.95 µM (inactive)
- GI50 (SN12C): 11.1 µM (inactive)
- GI50 (OVCAR-4): 1.76 µM (inactive)
- GI50 (NCI/ADR-RES): 20.1 µM (inactive)
- GI50 (SF-539): 2.27 µM (inactive)
